We go through 3 molecules from paper PMC8231556, “Inhibiting Endothelial Cell Function in Normal and Tumor Angiogenesis Using BMP Type I Receptor Macrocyclic Kinase Inhibitors” (Cancers, 2021).

Holding throughout (experiment): radiometric kinase profiling (33 PanQinase)
Common to all, as to format: biochemical

Experiment [1] has as its target T1, KIT (Homo sapiens, UniProt P10721).
T1 construct: purchased ProQinase (33PanQinase Activity Assay)
To be noted: read-out: Inhibitory effect (%) KIT. The procedure, abridged:
(§1)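 Enzyme/substrate mixes were incubated with [γ-33P]-ATP and compound (added as a 0.1 μM solution in 10% DMSO) at 30 °C for 60 min, then stopped with H3PO4 and washed with NaCl. 33P incorporation was scintillation-counted, and residual activity (%) was normalized to untreated control and background.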

For experiment [2], the target named is T2, PAK2 (Homo sapiens, UniProt Q13177).
T2 construct: purchased ProQinase (33PanQinase Activity Assay)
To be noted: read-out: Inhibitory effect (%) PAK2. A digest of the protocol: as §1

For experiment [3], the target named is T3, DDR2 (Homo sapiens, UniProt Q16832).
T3 construct: purchased Proqinase, Germany
T3 sequence (Q16832 22-855): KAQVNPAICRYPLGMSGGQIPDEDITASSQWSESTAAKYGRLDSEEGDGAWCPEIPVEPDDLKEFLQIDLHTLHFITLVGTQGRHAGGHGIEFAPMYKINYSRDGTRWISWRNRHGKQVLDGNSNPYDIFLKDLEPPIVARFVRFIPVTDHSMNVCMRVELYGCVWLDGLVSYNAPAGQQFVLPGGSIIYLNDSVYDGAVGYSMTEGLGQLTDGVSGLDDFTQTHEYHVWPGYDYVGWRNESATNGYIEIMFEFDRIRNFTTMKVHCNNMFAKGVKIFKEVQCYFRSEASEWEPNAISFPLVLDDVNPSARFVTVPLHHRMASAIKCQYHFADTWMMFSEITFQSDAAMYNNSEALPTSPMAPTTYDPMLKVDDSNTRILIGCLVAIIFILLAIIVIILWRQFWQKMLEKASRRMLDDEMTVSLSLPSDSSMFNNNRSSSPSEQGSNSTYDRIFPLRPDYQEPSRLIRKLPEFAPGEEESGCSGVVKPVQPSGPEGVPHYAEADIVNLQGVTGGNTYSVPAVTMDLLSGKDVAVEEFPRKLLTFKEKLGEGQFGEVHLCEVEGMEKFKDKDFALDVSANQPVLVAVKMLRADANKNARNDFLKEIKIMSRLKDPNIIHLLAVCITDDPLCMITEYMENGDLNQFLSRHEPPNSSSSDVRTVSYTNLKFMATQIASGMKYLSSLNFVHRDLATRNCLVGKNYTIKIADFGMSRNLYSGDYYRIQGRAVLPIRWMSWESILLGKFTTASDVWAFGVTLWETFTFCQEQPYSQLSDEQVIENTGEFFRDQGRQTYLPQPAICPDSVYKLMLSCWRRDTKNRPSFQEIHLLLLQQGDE
The conditions noted are these: read-out: Inhibitory effect (%) DDR2. A digest of the protocol:
as §1

Experiment [4] has as its target T4, RIPK2 (Homo sapiens, UniProt O43353).
T4 construct: purchased ProQinase (33PanQinase Activity Assay)
The conditions noted are these: read-out: Inhibitory effect (%) RIPK2. The procedure, abridged:
as §1

The target in experiment [5] is T5, PLK1 (Homo sapiens, UniProt P53350).
T5 construct: purchased ProQinase (33PanQinase Activity Assay)
The conditions noted are these: read-out: Inhibitory effect (%) PLK1. The procedure, abridged:
as §1

The target of experiment [6] is T6, NUAK1 (Homo sapiens, UniProt O60285).
T6 construct: purchased ProQinase (33PanQinase Activity Assay)
T6 sequence (O60285 1-661): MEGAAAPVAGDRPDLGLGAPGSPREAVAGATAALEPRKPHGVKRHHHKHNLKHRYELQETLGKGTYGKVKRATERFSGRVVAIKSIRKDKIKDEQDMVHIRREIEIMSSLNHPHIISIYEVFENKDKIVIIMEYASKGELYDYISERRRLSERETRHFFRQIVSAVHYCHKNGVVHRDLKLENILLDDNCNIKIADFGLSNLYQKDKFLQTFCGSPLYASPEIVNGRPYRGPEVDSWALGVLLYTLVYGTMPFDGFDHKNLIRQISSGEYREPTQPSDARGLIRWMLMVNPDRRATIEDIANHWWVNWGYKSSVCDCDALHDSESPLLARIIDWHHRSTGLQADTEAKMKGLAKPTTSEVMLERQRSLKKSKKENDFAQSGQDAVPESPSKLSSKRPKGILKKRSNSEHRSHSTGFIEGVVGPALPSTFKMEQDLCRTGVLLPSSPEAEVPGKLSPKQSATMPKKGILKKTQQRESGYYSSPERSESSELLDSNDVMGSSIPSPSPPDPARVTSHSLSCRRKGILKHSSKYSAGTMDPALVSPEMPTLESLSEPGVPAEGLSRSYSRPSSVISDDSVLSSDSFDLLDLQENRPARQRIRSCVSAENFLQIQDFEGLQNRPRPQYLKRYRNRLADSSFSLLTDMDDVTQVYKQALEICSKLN
To be noted: read-out: Inhibitory effect (%) NUAK1. A digest of the protocol:
as §1

In experiment [7] the target is T7, DYRK1A (Homo sapiens, UniProt Q13627).
T7 construct: purchased Proqinase, Germany
The conditions noted are these: read-out: Inhibitory effect (%) DYRK1A. A digest of the protocol:
as §1

Experiment [8] addresses T8, NEK6 (Homo sapiens, UniProt Q9HC98).
T8 construct: purchased ProQinase (33PanQinase Activity Assay)
To be noted: read-out: Inhibitory effect (%) NEK6. The procedure, abridged:
as §1

The target of experiment [9] is T9, LRRK2 (Homo sapiens, UniProt Q5S007).
T9 construct: purchased ProQinase (33PanQinase Activity Assay)
The conditions noted are these: read-out: Inhibitory effect (%) LRRK2. A digest of the protocol:
as §1

The target of experiment [10] is T10, PRKCB1_II (Homo sapiens, UniProt P05771).
T10 construct: purchased ProQinase (33PanQinase Activity Assay)
To be noted: read-out: Inhibitory effect (%) PRKCB1_II. A digest of the protocol:
as §1

T5 sequence (P53350 whole entry): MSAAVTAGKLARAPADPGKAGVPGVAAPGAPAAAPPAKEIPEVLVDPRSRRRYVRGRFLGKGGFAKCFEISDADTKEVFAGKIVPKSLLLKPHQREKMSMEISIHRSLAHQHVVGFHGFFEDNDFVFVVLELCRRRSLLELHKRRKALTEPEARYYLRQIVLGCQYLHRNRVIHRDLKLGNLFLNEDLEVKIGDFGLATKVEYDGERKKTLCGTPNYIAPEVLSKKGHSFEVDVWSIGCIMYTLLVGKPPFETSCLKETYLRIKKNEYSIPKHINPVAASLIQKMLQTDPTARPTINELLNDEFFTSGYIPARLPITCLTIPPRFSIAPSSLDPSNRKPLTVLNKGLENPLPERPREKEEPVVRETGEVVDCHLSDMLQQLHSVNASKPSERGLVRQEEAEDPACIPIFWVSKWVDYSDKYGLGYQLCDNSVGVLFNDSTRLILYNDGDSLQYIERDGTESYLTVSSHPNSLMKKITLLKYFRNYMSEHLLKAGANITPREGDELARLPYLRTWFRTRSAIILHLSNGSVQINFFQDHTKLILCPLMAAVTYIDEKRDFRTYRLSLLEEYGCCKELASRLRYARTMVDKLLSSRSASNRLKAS
T1 sequence (P10721 26-976): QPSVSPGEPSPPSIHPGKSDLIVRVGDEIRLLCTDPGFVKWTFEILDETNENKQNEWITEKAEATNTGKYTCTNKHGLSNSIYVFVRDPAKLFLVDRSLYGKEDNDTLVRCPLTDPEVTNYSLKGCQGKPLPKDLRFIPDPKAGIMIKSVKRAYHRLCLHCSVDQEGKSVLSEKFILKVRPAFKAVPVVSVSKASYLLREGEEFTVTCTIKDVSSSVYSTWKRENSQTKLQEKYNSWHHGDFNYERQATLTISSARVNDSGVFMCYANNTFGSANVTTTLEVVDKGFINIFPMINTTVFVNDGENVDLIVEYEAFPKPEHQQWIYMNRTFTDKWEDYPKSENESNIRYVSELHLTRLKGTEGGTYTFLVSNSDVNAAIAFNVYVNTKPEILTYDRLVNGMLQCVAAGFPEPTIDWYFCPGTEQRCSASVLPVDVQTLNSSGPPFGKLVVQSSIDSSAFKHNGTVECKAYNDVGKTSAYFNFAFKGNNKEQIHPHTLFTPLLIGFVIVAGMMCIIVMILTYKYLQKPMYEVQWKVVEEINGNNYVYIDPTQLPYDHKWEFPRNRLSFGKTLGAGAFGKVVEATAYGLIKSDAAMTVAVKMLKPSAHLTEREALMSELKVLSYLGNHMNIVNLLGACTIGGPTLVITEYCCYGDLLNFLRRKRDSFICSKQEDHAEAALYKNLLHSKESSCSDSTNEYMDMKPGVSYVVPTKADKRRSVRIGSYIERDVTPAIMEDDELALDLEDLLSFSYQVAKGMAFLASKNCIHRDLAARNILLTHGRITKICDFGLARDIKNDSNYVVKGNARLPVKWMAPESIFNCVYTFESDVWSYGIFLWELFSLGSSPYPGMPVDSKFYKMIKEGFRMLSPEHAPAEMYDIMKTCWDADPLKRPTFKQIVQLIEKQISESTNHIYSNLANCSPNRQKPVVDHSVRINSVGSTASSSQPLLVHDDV
T2 sequence (Q13177 whole entry): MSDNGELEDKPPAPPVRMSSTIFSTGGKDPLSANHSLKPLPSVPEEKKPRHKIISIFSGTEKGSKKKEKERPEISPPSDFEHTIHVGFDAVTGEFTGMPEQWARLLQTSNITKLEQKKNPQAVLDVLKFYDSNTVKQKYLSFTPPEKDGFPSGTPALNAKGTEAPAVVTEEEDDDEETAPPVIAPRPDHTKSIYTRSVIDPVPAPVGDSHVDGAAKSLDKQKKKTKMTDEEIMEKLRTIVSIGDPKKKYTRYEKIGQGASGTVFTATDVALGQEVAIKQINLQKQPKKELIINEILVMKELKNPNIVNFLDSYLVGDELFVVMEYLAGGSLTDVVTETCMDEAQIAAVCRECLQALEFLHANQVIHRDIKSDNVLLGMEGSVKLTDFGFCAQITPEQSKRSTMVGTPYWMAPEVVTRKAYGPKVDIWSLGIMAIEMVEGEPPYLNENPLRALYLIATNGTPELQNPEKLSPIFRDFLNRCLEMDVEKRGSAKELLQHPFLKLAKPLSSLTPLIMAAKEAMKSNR
T8 sequence (Q9HC98 whole entry): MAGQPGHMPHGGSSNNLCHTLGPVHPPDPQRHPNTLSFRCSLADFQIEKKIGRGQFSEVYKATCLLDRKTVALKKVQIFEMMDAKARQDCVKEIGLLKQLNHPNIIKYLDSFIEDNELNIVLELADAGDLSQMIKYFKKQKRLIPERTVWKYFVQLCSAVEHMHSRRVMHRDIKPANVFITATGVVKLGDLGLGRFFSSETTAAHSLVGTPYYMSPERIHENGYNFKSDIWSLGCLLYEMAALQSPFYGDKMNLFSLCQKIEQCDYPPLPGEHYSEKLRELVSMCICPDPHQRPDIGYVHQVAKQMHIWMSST
T9 sequence (Q5S007 whole entry): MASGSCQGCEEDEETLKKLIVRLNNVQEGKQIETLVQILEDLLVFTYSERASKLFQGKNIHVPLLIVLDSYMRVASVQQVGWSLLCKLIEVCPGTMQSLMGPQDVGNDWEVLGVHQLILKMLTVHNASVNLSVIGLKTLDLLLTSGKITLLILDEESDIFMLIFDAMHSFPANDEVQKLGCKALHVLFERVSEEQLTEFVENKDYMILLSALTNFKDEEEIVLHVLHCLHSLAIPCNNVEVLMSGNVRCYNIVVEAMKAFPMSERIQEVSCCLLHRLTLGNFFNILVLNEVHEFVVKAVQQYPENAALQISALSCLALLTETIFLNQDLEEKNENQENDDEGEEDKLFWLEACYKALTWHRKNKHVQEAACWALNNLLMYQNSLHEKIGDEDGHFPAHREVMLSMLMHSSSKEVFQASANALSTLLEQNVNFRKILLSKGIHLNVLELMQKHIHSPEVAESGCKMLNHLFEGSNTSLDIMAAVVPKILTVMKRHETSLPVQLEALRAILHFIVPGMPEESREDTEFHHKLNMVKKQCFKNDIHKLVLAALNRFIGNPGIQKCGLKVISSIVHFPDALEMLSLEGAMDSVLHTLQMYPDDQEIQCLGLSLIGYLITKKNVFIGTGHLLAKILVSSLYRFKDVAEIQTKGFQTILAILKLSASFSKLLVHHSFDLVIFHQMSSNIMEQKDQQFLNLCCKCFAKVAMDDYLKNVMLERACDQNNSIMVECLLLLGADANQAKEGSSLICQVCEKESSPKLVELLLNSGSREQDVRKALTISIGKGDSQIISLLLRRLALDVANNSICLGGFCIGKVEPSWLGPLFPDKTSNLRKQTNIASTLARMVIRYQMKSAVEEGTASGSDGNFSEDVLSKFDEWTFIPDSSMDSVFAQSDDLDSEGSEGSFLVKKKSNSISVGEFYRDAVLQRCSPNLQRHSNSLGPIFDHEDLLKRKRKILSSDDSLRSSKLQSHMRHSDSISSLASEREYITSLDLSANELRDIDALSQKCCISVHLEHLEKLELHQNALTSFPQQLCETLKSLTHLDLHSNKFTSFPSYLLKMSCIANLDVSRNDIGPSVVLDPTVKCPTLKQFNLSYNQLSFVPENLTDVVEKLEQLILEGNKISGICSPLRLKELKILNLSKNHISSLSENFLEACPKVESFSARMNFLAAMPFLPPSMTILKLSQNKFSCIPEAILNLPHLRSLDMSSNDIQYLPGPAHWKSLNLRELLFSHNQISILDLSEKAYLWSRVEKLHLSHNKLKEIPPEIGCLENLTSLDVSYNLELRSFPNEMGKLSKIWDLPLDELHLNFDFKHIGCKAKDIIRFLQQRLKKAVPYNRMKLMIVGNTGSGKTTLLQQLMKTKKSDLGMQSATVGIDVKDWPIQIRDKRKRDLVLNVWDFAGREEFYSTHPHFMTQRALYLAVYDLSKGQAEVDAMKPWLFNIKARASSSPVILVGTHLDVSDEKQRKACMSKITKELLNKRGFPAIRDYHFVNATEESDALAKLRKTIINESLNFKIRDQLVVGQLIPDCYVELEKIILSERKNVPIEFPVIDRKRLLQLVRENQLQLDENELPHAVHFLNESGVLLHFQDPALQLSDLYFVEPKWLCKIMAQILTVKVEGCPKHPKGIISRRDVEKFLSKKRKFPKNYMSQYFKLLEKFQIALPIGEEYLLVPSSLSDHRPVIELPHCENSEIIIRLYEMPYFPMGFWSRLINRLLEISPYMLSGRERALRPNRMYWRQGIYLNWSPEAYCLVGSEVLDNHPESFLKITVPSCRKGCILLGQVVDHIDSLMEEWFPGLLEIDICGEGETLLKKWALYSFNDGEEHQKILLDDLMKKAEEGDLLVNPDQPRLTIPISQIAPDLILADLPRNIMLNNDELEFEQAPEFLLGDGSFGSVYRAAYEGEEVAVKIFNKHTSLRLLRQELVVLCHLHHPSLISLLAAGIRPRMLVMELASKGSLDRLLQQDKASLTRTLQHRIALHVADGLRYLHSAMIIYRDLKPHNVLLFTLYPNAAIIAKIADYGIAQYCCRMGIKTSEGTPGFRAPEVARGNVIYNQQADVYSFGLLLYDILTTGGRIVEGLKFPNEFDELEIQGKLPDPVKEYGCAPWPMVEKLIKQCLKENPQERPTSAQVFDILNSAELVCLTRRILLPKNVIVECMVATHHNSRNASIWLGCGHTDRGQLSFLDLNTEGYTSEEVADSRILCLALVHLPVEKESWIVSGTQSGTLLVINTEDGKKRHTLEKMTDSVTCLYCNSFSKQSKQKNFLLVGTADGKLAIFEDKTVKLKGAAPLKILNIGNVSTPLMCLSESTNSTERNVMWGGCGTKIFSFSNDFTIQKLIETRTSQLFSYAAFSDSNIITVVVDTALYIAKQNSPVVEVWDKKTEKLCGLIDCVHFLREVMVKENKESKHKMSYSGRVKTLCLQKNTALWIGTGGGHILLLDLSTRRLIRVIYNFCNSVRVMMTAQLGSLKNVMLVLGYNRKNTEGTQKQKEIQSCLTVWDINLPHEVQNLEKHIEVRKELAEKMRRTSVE

Turning to `c1ccc2c(-c3cnn4cc(-c5ccc(N6CCNCC6)cc5)cnc34)ccnc2c1` [LDN-193189, reference compound], the inhibition at 0.1 µM is -20.3% in experiment [1]; -2.66% in experiment [2]; 10.1% in experiment [3]; 91.1% in experiment [4]; -21.7% in experiment [5]; -20.2% in [6]. In addition, the inhibition at 0.1 µM in experiment [7] was -15.6%; in experiment [8], 7.05%; in experiment [9], 5.16%; in experiment [10], 1.8%.
Regarding `CN1CCc2cccc(c2)Nc2nccc(n2)N2CCCc3cc(ccc32)C1` [OD16], the inhibition at 0.1 µM was 33% in [1]; -27.1% in experiment [2]; 33.5% in experiment [3]; 36.5% in experiment [4]; -5.35% in experiment [5]; 74.3% in experiment [6]. The inhibition at 0.1 µM in experiment [7] was -6.26%; in experiment [8] it was -21.1%; in experiment [9] it was 18.4%; in experiment [10], 15.9%.
As to `CN1CCC(=O)NCCNc2ccn3ncc(c3n2)-c2cccc(c2)C1` [OD29], the inhibition at 0.1 µM was 7.49% in experiment [1]; 7.91% in experiment [2]; 12.9% in experiment [3]; 62.5% in experiment [4]; -21.2% in experiment [5]; 5.32% in [6]. Besides, the inhibition at 0.1 µM was -7.58% in experiment [7], 4.01% in experiment [8], 13.8% in experiment [9] and 3.7% in experiment [10].
